The values that follow come from patent US11680264B2, “Methods of modulating melanosome pH and melanin level in cells” (Cornell University, priority 2016, dated 2023).

The test system of data set [1] is sAC^FF mouse melanocytes. The data set is described as follows: DAMP melanosome pH assay (HMB45 co-staining). The class given is cell-based. As to conditions: sAC^FF mouse melanocytes; for melanosome pH (DAMP uptake at HMB45 positive melanosomes), substance alone: 4 hours, KH7 30 μM, cAMP 500 μM, H89 10 μM, PKI 10 μM, ESI-09 10 μM. The method, then:
(§1) N-{3-[(2,4-dinitrophenyl)amino]propyl}-N-(3-aminopropyl)methylamine dihydrochloride (DAMP) is a weakly basic amine that is taken up in acidic organelles of live cells and which has been used to measure melanosome pH (Bin et al., PLOS One, 10(6):e0129273 (2015); Tabata et al., Cell Tissue Res., 332(3): 447-460 (2008)). Cells were cultured on sterile glass coverslips in 24-mm wells at 50×10^3 cells/coverslip. […] After permeabilization with 0.1% Triton X-100 in Buffer A at −20° C., the cells were labeled with the supplied anti-DNP antibody (Oxford Biomedical Research) according to kit protocol. Melanosomes were identified using the monoclonal antibody (anti-HMB45, 1:40, Santa Cruz Biotechnology). Fluorescence was detected after secondary staining with Alexa Fluor 546 donkey anti-goat IgG antibody (Invitrogen) and Alexa Fluor 647 donkey anti-mouse IgG antibody (Invitrogen). All quantitative analyses were performed using the Object Count tool in Nikon AR 4.60. For each image, the lower intensity threshold limit of each fluorescence channel was defined as the intensity of the dimmest punctum returned using the 3 points circle threshold tool. The upper intensity threshold limit was set to the maximum value. Equivalent diameter (EqDiameter) was restricted to 1.85-30.00 pixels. Circularity was restricted to 0.20-1.00. Mean fluorescence intensity was measured for all DAMP^+ puncta. Melanosomes were identified as HMB45^+ puncta. DAMP measurements were only recorded when colocalized with HMB45. Frequency distributions were generated for each sample from mean DAMP fluorescence intensity of DAMP^+ melanosomes. All analyses were performed on two replicate coverslips (n≥15 cells per coverslip). Melanosomes were first identified as TRP1^+ or tyrosinase^+ puncta. sAC^+ melanosomes were identified as R52^+ or R21^+ puncta colocalizing with TRP1^+ or tyrosinase^+ puncta. The degree of colocalization between sAC and melanosomes was calculated as the number of sAC+ melanosomes divided by the total number of melanosomes and expressed as a percentage.
(§2) The effect of pharmacologic inhibition of sAC was also measured using the DAMP assay described above. Briefly, Cells were cultured on sterile glass coverslips in 24-mm wells at 50×10^3 cells/coverslip and treated or not treated for 4 hours with 30 μM KH7 or LRE1. […] After permeabilization with 0.1% Triton X-100 in Buffer A at −20° C., the cells were labeled with the supplied anti-DNP antibody (Oxford Biomedical Research) according to kit protocol. Melanosomes were identified using the monoclonal antibody (anti-HMB45, 1:40, Santa Cruz Biotechnology). Fluorescence was detected after secondary staining with Alexa Fluor 546 donkey anti-goat IgG antibody (Invitrogen) and Alexa Fluor 647 donkey anti-mouse IgG antibody (Invitrogen). All images were acquired using a Zeiss LSM 880 and analyzed using NIS-Elements AR 4.60 (Nikon).

Data set [2] has as its system sAC^KO mouse melanocytes. In words: DAMP melanosome pH assay (HMB45 co-staining). The class given is cell-based. As to conditions: 4 hours; for effect on cAMP-dependent rescue of melanosome pH (DAMP): co-incubation with cAMP [Sp-8-CPT-cAMPs], 10 μM; for melanosome pH (DAMP), substance alone: KH7 30 μM, cAMP analogs 500 μM, ESI-09 10 μM, MSH 100 nM. As to the method: as §1, §2

A further data set has as its system PKA targeted proteins. In words: Western blot of PKA substrate phosphorylation. It counts as cell-based. Particulars: mouse and human melanocytes, 4 hours. A general note: In western blotting, separated proteins are transferred to a membrane and probed.
The test system of data set [3] is human melanocytes. The data set is described as follows: DAMP melanosome pH assay (HMB45 co-staining). The class given is cell-based. As to conditions: for melanosome pH (DAMP), substance alone: 4 hours, KH7 30 μM, cAMP 500 μM, H89 10 μM, ESI-09 10 μM. The method, then: as §1
The effect of sAC inhibition on melanosome pH was also assessed in human melanocytes.

Data set [4] concerns human melanocytes. The data set is described as follows: Cellular eumelanin content. It counts as cell-based. Particulars: 48 hours, KH7 30 μM, ESI-09 10 μM. The method, then:
(§3) FIGS. 15A-15J provide the results of experiments analyzing the effect of sAC activity on melanin production. FIG. 15A is a graph illustrating the cellular eumelanin and pheomelanin content in sAC^FF (FF) and sAC^KO (KO) mouse melanocytes. Numbers above bars represent the ratio of pheomelanin to eumelanin. Average of triplicate determinations. FIG. 15B is a graph illustrating the cellular eumelanin content of sAC^FF and sAC^KO mouse melanocytes grown for 96 hours in the absence (−, DMSO) or presence of KH7 (+, 30 μM). Average of triplicate determinations. FIG. 15C is a graph illustrating the fold over baseline cellular eumelanin level of human melanocytes (n=8) treated with KH7 (30 μM) or vehicle (DMSO) for 48 hours. All assays performed in triplicate. Students t-test **P<0.01, ****P<0.0001. FIG. 15D is images of cell pellets of sAC^FF and sAC^KO mouse melanocytes. FIG. 15E is a graph of the melanin levels of pairs of sAC^FF and sAC^KO mouse melanocytes. FIGS. 15F and 15G are images of cell pellets of sAC^FF mouse melanocytes grown in the absence (DMSO, FIGS. 15G and 15F, left panels) or presence of KH7 (FIG. 15G, 30 μM, right panel) or LRE1 (FIG. 15F, 50 μM, right panel) for 96 hours. FIG. 15H is images of cell pellets of human melanocytes (C226, C38) treated with vehicle control (DMSO, left) or KH7 (30 μM, right) for 48 hours. FIG. 15I is images of cell pellets of human melanocytes (C226) treated with vehicle control (DMSO, left) or ESl-09 (10 μM, right) for 48 hours. FIG. 15J is a graph illustrating the fold over baseline cellular (eumelanin) level of human melanocytes treated with ESl-09 (10 μM) or vehicle (DMSO) for 48 hours (n=3, distinct human cell lines). For FIGS. 15E and 15J Students t-test, *p<0.05, **p<0.01, ****p<0.0001.

Data set [5] concerns C3H/HeJ mice. In words: Topical treatment of epilated back skin, hair pigmentation. The class given is in vivo, mouse. The method, then:
Therefore, experiments were performed to determine whether inhibition of sAC in animals could alter hair pigmentation. Animal experiments were performed in accordance with approved Institutional Animal Care and Use Committee protocol at Weill Cornell Medicine. Age and gender matched C3H/HeJ mice (female, 7 weeks old) were purchased from The Jackson Laboratory. For the analysis of hair pigmentation, the upper and lower dorsum of each mouse were epilated using hair removal wax. 10 μl of KH7 (42 mg/ml in DMSO), LRE1 (28 mg/ml in DMSO) or DMSO (vehicle control) was topically applied onto the upper back and DMSO was applied to the lower back three times a day over two weeks. These mice were monitored for changes in coat color as the epilated hair grew back. Hair was removed from each treated area after 3 weeks to measure the length of the total hair, apical black tip and subapical agouti (pheomelanin) band under a stereo microscope. Mice were euthanized and the treated skin was submitted to a blinded animal pathologist for histological evaluation of the epidermis and hair follicles. This experiment was performed twice with 3-4 mice per cohort (total n=6-7)

Data set [6] concerns C3H/HeJ mice. The data set is described as follows: Topical treatment of ear, epidermal pigmentation (Fontana Masson). It counts as in vivo, mouse. As to conditions: topical on right ear, twice a day for two weeks. As to the method:
Melanocytes also exist in the epidermis at specific areas of mouse skin (e.g., pinnae) (Nordlund et al., Dermatol Clin., 4(3): 407-418 (1986)); thus, these areas were studied to examine the role of sAC in epidermal pigmentation. For analysis of epidermal pigmentation, using C3H/HeJ mice as above, 20 μl of KH7 ([…]), LRE1 (28 mg/ml) or DMSO (vehicle control) was topically applied on the right ear and DMSO was topically applied on the left ear twice a day for two weeks. Ear skin was monitored daily for irritation and changes in pigmentation. After two weeks, mice were euthanized and the treated skin was submitted to a blinded animal pathologist for histological evaluation of the epidermis and special stains (Fontana Masson). This experiment was performed twice with 3 mice per cohort (total n=6)

For data set [7], the system named is sAC^FF mouse melanocytes. In words: LysoSensor Yellow/Blue DND-160 organelle pH assay. The class given is cell-based. As to conditions: 30 μM, 4 hours. As to the method: (§4) To determine the pH of the sAC^KO and sAC^FF melanocytes the pH-sensitive vital dye LysoSensor Yellow/Blue DND-160 (Bellono et al. Sci Rep., 6:26570 (2016)) was used. Briefly, cells were incubated with 1 μM LysoSensor DND-160 (Invitrogen) for 5 minutes at 37° C. Lysosensor was excited at 405 nm and its emission detected at 417-483 nm (W1) and 490-530 nm (W2). The ratio of emissions (W1/W2) in Lysosensor-stained puncta was assigned to a pH value based on a calibration curve generated for each experiment using solutions containing 125 mM KCl, 25 mM NaCl, 24 μM monensin, and varying concentrations of MES to adjust the pH to 4, 4.5, 5.0, 5.5, 6.0, 6.5, 7.0, 7.5. The fluorescence ratio was linear for pH 5.0-7.0.
as §4, with “The effect” for “To determine the pH”, “pharmacologic inhibition of sAC was examined using” for “the sAC^KO and sAC^FF melanocytes”, “vial” for “vital”, “assay, described above.” for “(Bellono et al. Sci Rep., 6:26570 (2016)) was used.”, “Briefly, cultured sAC^FF melanocytes were treated for 4 hours with 30 μM KH7, 30 μM LRE1, or control (untreated). The” for “Briefly,”

The subject of data set [8] is sAC^KO mouse melanocytes. The data set is described as follows: LysoSensor Yellow/Blue DND-160 organelle pH assay. The class given is cell-based. As to conditions: 30 μM, 4 hours. The method, then:
as §4
as §4, with “The effect” for “To determine the pH”, “pharmacologic inhibition of sAC was examined using” for “the sAC^KO and sAC^FF melanocytes”, “vial” for “vital”, “assay, described above.” for “(Bellono et al. Sci Rep., 6:26570 (2016)) was used.”, “Briefly, cultured sAC^FF melanocytes were treated for 4 hours with 30 μM KH7, 30 μM LRE1, or control (untreated). The” for “Briefly,”

The subject of data set [9] is sAC^FF mouse melanocytes. In words: Cellular eumelanin content. Particulars: KH7 30 μM or LRE1 50 μM, 96 hours. The class given is cell-based. The method, then: as §3
Data set [10] deals with sAC^KO mouse melanocytes. The data set is described as follows: Cellular eumelanin content. It counts as cell-based. Particulars: 96 hours. The method, then: as §3
Setting [11] is: co-incubation with 30 μM KH7, 4 hours, cAMP analogs 500 μM, MSH 100 nM.
Where [12] appears, read: topical on back, hair removed after 3 weeks.

Consider `O=S(=O)(NCCNC/C=C/c1ccc(Br)cc1)c1cccc2cnccc12` [H89], for which the “melanosome pH (DAMP uptake at HMB45 positive melanosomes), substance alone” value in the data set with sAC^FF mouse melanocytes [1] is on record as “had no effect on melanosome pH”. Further, the “effect on cAMP-dependent rescue of melanosome pH (DAMP)” value in the data set on sAC^KO mouse melanocytes [2] is reported as “did not block the cAMP-dependent rescue of melanosome pH”. For the same molecule, the “phosphorylation of PKA targeted proteins” value in the data set with PKA targeted proteins is “dramatic reduction in the phosphorylation of PKA targeted proteins”. Further, in the data set on human melanocytes [3], the “melanosome pH (DAMP), substance alone” value is on record as “had no effect on melanosome pH”.
In the case of `CO[C@H]1C2OP(=O)(O)OC[C@H]2O[C@H]1n1c(Sc2ccc(O)cc2)nc2c(N)ncnc21` (stereo partly shown) [8-pHPT-2′-O-Me-cAMP, 8-(4-Hydroxyphenylthio)-2′-O-methyladenosine-3′, 5′-cyclic monophosphate], the “effect on KH7-induced alkaline shift in melanosome pH (DAMP)” value in the data set with sAC^FF mouse melanocytes [1] (setting [11]) and with human melanocytes [3] (setting [11]) was “mitigate the KH7-induced alkalization of melanosome pH” each time. The “melanosome pH (DAMP), substance alone” value in the data set on sAC^KO mouse melanocytes [2] is given as “sufficient to induce melanosome acidification”.
On to `CC(C)(C)c1cc(C(=O)C(C#N)=NNc2cccc(Cl)c2)no1` [ESI-09, 3-(5-tert-butyl-isoxazol-3-yl)-2-((3-chlorophenyl)-hydrazono)-3-oxo-propionitrile], for which the “melanosome pH (DAMP uptake at HMB45 positive melanosomes), substance alone” value with sAC^FF mouse melanocytes [1] was “elevated melanosome pH”. Besides, the “melanosome pH (DAMP), substance alone” value in the data set on sAC^KO mouse melanocytes [2] is reported as “had no effect on melanosome pH”; in the data set on human melanocytes [3] it was “elevated melanosome pH”. In the data set on human melanocytes [4], the eumelanin level result is “induced an increase in eumelanin level”.
As for `C[C@@H]1C[C@@H]([C@H](O)CC2CC(=O)NC(=O)C2)C(=O)[C@@H](C)C1` [cycloheximide], the “effect on cAMP-dependent rescue of melanosome pH (DAMP)” value in the data set on sAC^KO mouse melanocytes [2] is on record as “did not block the ability of cAMP to rescue pH following sAC inhibition”.
In the case of LRE1, the “eumelanin production in hair (microscopic examination)” value in the data set with C3H/HeJ mice [5] (setting [12]) is “increase in eumelanin production”. In addition, the “length of the agouti (pheomelanin) band” value with C3H/HeJ mice [5] (setting [12]) is “reduction in length of the agouti (pheomelanin) band”. Also, the “histologic examination of treated skin” value with C3H/HeJ mice [5] (topical on back, two weeks) is listed as “did not reveal any pathological change to the hair follicles or epidermis”. The “colour of regrown hair versus vehicle control” value in the data set on C3H/HeJ mice [5] (topical on epilated back, 10 μl KH7 42 mg/ml or LRE1 28 mg/ml in DMSO, three times a day over two weeks) is given as “visual darkening of regrown hair”. In addition, the “colour of ear epidermis relative to vehicle control” value with C3H/HeJ mice [6] (20 μl KH7 or LRE1 (28 mg/ml)) was “induced visual darkening of mouse ear epidermis”. In addition, the “epidermal melanin accumulation (Fontana Masson)” value with C3H/HeJ mice [6] is “increase in epidermal melanin accumulation”. In addition, the “pH of LysoSensor-visualized organelles” value in the data set with sAC^FF mouse melanocytes [7] is “induced an alkaline pH shift”; with sAC^KO mouse melanocytes [8], “had no effect”. The eumelanin levels result in the data set with sAC^FF mouse melanocytes [9] was “increased eumelanin levels”; with sAC^KO mouse melanocytes [10] it was “had no effect”.
